Entries after “also recorded” stand apart in the source; their conditions may differ.
What was measured:
[1] = test system: C57BL/6J mice; assay: Head twitch response (HTR); type: in vivo, mouse; conditions: 30 minutes after injection
Procedure: Male C57BL/6J mice at 6-8 weeks of age were purchased from Jackson Laboratories and housed four per cage in a climate and humidity-controlled room in a vivarium at the University of California, San Diego. The room operated on a reverse light cycle (lights on at 1900 h, off at 0700 h) with food and water available ad libitum, except during testing. All testing was performed during 1000 h and 1800 h. After a minimum of 1 week acclimation to the housing facility, mice were anesthetized using a mixture of ketamine (100 mg/kg IP) and xylazine (10 mg/kg IP). Under deep anesthesia, an incision was made in the scalp and a small neodymium magnet (4.57 mm×4.57 mm×2.03 mm) was attached to the cranium using cyanoacrylate and dental cement. After at least a 2-week recovery period, the mouse was removed from the home cage and injected intraperitoneally with the test article or vehicle (0.9% sterile saline). Immediately, the mouse was placed in a glass cylinder surrounded by a magnetometer coil and the head twitch response (HTR) was assessed for 30 minutes (Halberstadt and Geyer, 2013). The output of the coil was recorded using a Powerlab/8SP with LabChart v.7.3.2 (ADInstruments). Coil voltage was amplified, low-pass filtered (2-10 kHz cut-off frequency) to remove interference, digitized and sampled at 20 kHz. Head twitches were identified using a validated technique based on artificial intelligence (Halberstadt, 2020). Events in the recordings were transformed into a visual representation in the time-frequency domain and deep features were extracted using the pretrained convolutional neural network ResNet-50, and the images were subsequently classified using a Support Vector Machine algorithm.
Test articles (R,S-MDA, R(−)-MDA, S-(+)MDA), R,S-MDMA, R(−)-MDMA and S(+)-MDMA) were supplied by the NIDA Drug Supply Program as neat powders. Racemic MDA and MDMA and their enantiomers were dissolved in saline and injected IP at a volume of 5 mL/kg. Each dose was calculated based on the salt form of the compounds. For each treatment condition, six groups of mice (n=5-6/group) were treated with vehicle or the test drug (0.1, 0.3, 1, 3, or 10 mg/kg) and HTR assessed for 30 minutes immediately following injections. To avoid carryover effects, each treatment condition was performed at least seven days apart. Total number of mice used for the experiment was 63.

[2] = Rat brain monoamine and metabolite concentrations 1 week after cumulative SC dosing; conditions: cumulative SC, 5 mg/kg/injection; 1 week after dosing; 5 mg/kg
[3] = test system: CD (Sprague Dawley) rats; assay: Rat telemetry: heart rate, blood pressure, body temperature, activity after cumulative SC dosing; type: in vivo
Excerpt: Methods. A total of 42 adult male CD® (Sprague Dawley) rats (Charles River Laboratories) were surgically implanted with DSI radiotelemetry devices by personnel at Charles River Laboratories Raleigh, NC, per their test site SOPs. Telemetry devices supported continuous recording of temperature, activity, blood pressure and heart rate. Telemeterized rats were shipped to the Charles River Laboratories testing facility (Mattawan, MI) and acclimated to the environment for at least 1 week prior to experimentation. Animals were pair-housed in solid bottom cages with nonaromatic bedding. On the dosing day, animals were singly housed and then returned to the paired cohort following the dosing/telemetry recording phase. Diet (Lab Diet® Certified Rodent Diet #5CR4) and tap water via an automatic water system were available ad libitum, except during designated procedures. Temperature and humidity were maintained according to the Testing Facility SOP. Animals were randomized into treatment groups using a standard, by weight, measured value randomization procedure. Body weight was determined for each rat prior to dosing.
As illustrated in the Table, a total of 36 rats were included in the study. The vehicle and 2 test article doses were administered in a volume of 1 mL/kg to each of 3 groups of n=12 telemeterized rats via subcutaneous injection four times on a given day, followed by neurobehavioral evaluations. This series was repeated 3 times on study. Each group received all 3 dose levels of the applicable test or control article in ascending order with a 1-week washout between dose levels.
Mortality/cage side clinical observations were conducted for all study animals at least twice daily beginning upon receipt through termination, except on days of receipt and termination where frequency was at least once daily. Detailed clinical observations were conducted for all study animals prior to each of the four cumulative doses in a series. Individual body weights were conducted for all study animals at transfer, prior to randomization, on the day of dosing on each of the 3 cycles of dosing. The body weights recorded at transfer and prior to randomization are not reported but are maintained in the study file. Veterinary care was available throughout the course of the study, and animals were examined by the veterinary staff as needed based on clinical signs or other changes. All animals were provided with HydroGel the night prior to their respective dosing days to potentially mitigate any animal welfare issues related to fluid loss/dehydration.
Telemetry monitoring was conducted for all animals 2 hours prior to dosing and through to 7.5 hours following the last (4th) cumulative dose of each series, which included continuous data collection of body temperature, activity, heart rate, and blood pressure (systolic, diastolic, and mean arterial) using telemetry.
The total period of time over which the statistical analyses were conducted encompassed the entire dosing period for all animals (i.e., Dose 1 through 7.5 hour post-4th dose) in an effort to draw conclusions regarding the effects of the dosing procedure and cumulative changes by allowing comparisons between the cumulative dosing periods. The following statistical analyses were performed for each analysis segment.
All time-series data comparisons conducted via statistical analysis are relative to the control treatment and are based on the LSMean values. Additionally, the change values used for the statistical analysis were calculated using a baseline of the 2 hours of pre-dose data, prior to the first compound injection of the series. The raw change values were analyzed.

[4] = racemic MDMA 20 mg/kg/day, S-MDMA 10 mg/kg/day, approximate
[5] = telemetry, cumulative SC dosing, dose groups stated in the value

| Structure (SMILES) | head twitch response (HTR) compared to control (vehicle) ([1]; 3 mg/kg IP) | head twitch response (HTR) compared to control (vehicle) ([1]; 10 mg/kg IP) | frontal cortex 5-HT (serotonin) compared to vehicle [2] | hemodynamic parameters (systolic/diastolic/mean arterial blood pressures and heart rate) ([3]; 4 hourly SC injections, cumulative doses 5, 10, or 20 mg/kg/day) | period of significantly decreased body temperature compared to R-MDMA (10 mg/kg/day) ([3]; S-MDMA 10 mg/kg/day, approximate) | body temperature response ([3]; S-MDMA 5, 10 mg/kg/day, racemic-MDMA 10, 20 mg/kg/day, 4 hourly SC injections) | activity (implanted telemetry devices) ([3]; all cumulative doses (5, 10, or 20 mg/kg/day)) | blood pressure increase [mean arterial pressure] ([3]; maximum change, R-MDMA and racemic MDMA 10, 20 mg/kg/day, S-MDMA 5, 10 mg/kg/day, 4 hourly SC injections) | peak body temperatures ([3]; overall mean magnitude of change, 4 hourly SC injections) [°C] | period of significantly increased body temperature compared to R-MDMA (10 mg/kg/day) [3, 4] | period of significantly increased heart rate compared to R-MDMA (10 mg/kg/day) [3, 4] | period of significantly increased mean arterial blood pressure compared to R-MDMA (10 mg/kg/day) [3, 4] | period of significantly increased systolic blood pressure compared to R-MDMA (10 mg/kg/day) [3, 4] | Rank Order Blood Pressures (Systolic, Diastolic, and Mean Arterial) Effects [3, 5] | Rank Order Body Temperature Effects [3, 5] | Rank Order General Activity Effects [3, 5] | Rank Order Heart Rate Measurement Effects [3, 5] |
| --- | --- | --- | --- | --- | --- | --- | --- | --- | --- | --- | --- | --- | --- | --- | --- | --- | --- |
| CNC(C)Cc1ccc2c(c1)OCO2 (single isomer, unassigned) [S-MDMA, S(+)-MDMA] | reduction of HTR | reduction of HTR | significantly decreased frontal cortex 5-HT concentrations | dose-dependent blood pressure-increasing effects | 0.5-1 hours post initiation of dosing | hyperthermic response | Activity-increasing effects | up to +36% | 39.5 | 3.5-4 hours post initiation of dosing | 5-10 hours post initiation of dosing | 1.5-3 hours post initiation of dosing | 1.5-3 hours post initiation of dosing | R-MDMA (10 mg/kg/day) < S-MDMA (5 mg/kg/day) < Rac.-MDMA (10 mg/kg/day); also recorded: R-MDMA (20 mg/kg/day) < S-MDMA (10 mg/kg/day) < Rac-MDMA (20 mg/kg/day); also recorded: S-MDMA (0 mg/kg/day) < S-MDMA (5 mg/kg/day) < S-MDMA (10 mg/kg/day); also recorded: R-MDMA (10 mg/kg/day) < S-MDMA (10 mg/kg/day) < Rac-MDMA (20 mg/kg/day) | R-MDMA (10 mg/kg/day) < S-MDMA (5 mg/kg/day) < Rac.-MDMA (10 mg/kg/day); also recorded: R-MDMA (20 mg/kg/day) < S-MDMA (10 mg/kg/day) < Rac-MDMA (20 mg/kg/day); also recorded: S-MDMA (0 mg/kg/day) < S-MDMA (5 mg/kg/day) < S-MDMA (10 mg/kg/day); also recorded: R-MDMA (10 mg/kg/day) < S-MDMA (10 mg/kg/day) < Rac-MDMA (20 mg/kg/day) | R-MDMA (10 mg/kg/day) < S-MDMA (5 mg/kg/day) < Rac.-MDMA (10 mg/kg/day); also recorded: R-MDMA (20 mg/kg/day) < S-MDMA (10 mg/kg/day) < Rac-MDMA (20 mg/kg/day); also recorded: S-MDMA (0 mg/kg/day) < S-MDMA (5 mg/kg/day) < S-MDMA (10 mg/kg/day); also recorded: R-MDMA (10 mg/kg/day) < S-MDMA (10 mg/kg/day) < Rac-MDMA (20 mg/kg/day) | R-MDMA (10 mg/kg/day) < S-MDMA (5 mg/kg/day) < Rac.-MDMA (10 mg/kg/day); also recorded: R-MDMA (20 mg/kg/day) < S-MDMA (10 mg/kg/day) < Rac-MDMA (20 mg/kg/day); also recorded: S-MDMA (0 mg/kg/day) < S-MDMA (5 mg/kg/day) < S-MDMA (10 mg/kg/day); also recorded: R-MDMA (10 mg/kg/day) < S-MDMA (10 mg/kg/day) < Rac-MDMA (20 mg/kg/day) |
| C[C@H](N)Cc1ccc2c(c1)OCO2 [S-MDA, S(+)-MDA] |  | reduction of HTR |  |  |  |  |  |  |  |  |  |  |  |  |  |  |  |
